One data set has as its target T1, CYP2D6 (Homo sapiens, UniProt P10635).
T1 construct: from tissue; host or cells: pooled human liver microsomes
Briefly: Direct CYP inhibition assay, pooled human liver microsomes, LC-MS/MS. The class given is in vitro ADME. Conditions: pooled HLMs, up to 50 μM, dextromethorphan substrate. The procedure: Reactions were incubated in eight-well strips placed in an 8 × 12 racks (1.2 ml; VWR, Emeryville, CA). The incubation mixtures (final volume, 200 μL) contained 0.2 mg/mL HLMs, 0.1 M phosphate buffer (pH 7.4), 1 mM NADPH, and various CYP isoform-specific substrate cocktail sets (A set: phenacetin, coumarin, amodiaquine, S-mephenytoin, dextromethorphan, and midazolam; B set: bupropion, tolbutamide, chlorzoxazone, and testosterone). […] Substrates were dissolved and serially diluted with acetonitrile to the required concentration in all experiments. […] The reactions were incubated at 37 °C in a shaking water bath. The reactions were terminated by placing the incubation tubes on ice, adding 200 μL of cold acetonitrile containing carbamazepine (100 nM) and 4-methylumbelliferone (500 nM) as an internal standard after 10 min, and agitating with a vortex mixer before centrifugation. The samples for each enzyme assay were centrifuged at 3,000 × g for 20 min at 4 °C, and supernatants of the individual reaction samples and pooled cocktail incubation samples (A set: B set, 1:1) were analysed using LC-MS/MS.
Sample injection volume was 10 μL, and separation was performed on an Atlantis™ dC18 column (2.1 × 50 mm i.d., 3 μm; Waters, Milford, MA, USA) and Luna™5u C18 column (2.0 × 30 mm i.d.; Phenomenex, Torrance, CA, USA) with a SecurityGuard™ C18 guard column (2.0 × 4.0 mm i.d.; Phenomenex, Torrance, CA, USA) maintained at 30 °C. The column was pre-equilibrated in 100% v/v solvent A (deionized water containing 0.1% v/v formic acid)/0% v/v solvent B (acetonitrile containing 0.1% v/v formic acid) at a flow rate of 0.4 ml/min. […] Quadrupoles Q1 and Q3 were set on unit resolution. The samples were analysed via multiple reaction monitoring (MRM) and enhanced product ion (EPI) scan mode. The turbo ion spray interface was operated in the positive ion mode at 5,500 V. The operating conditions were determined as follows: ion source temperature, 600 °C; nebulising gas flow, 50 L/min; auxiliary gas flow, 4.0 L/min; curtain gas flow, 20 L/min; collision gas (nitrogen) pressure 3.6 × 10^−5 Torr. Nitrogen gas was used for CUR, CAD, and NEB. The MRM transitions, collision energies and retention time were determined for each metabolite. The samples were analysed via MRM as described in our previous study. The scan dwell time was set at 0.08 s for every channel. Data acquisition and analysis was performed using the Analyst™ software (version 1.5.2; Applied Biosystems, Foster City, CA, USA).
(In general: Microsomes from liver hold many membrane-bound enzymes, among them those of drug oxidation.)

The target of another data set is purified CYP3A4 (Homo sapiens, UniProt P08684). Put plainly: Spectral binding titration of purified CYP3A4. The settings on record: Type I or Type II spectral change.
Sequence of purified CYP3A4 (P08684 whole entry): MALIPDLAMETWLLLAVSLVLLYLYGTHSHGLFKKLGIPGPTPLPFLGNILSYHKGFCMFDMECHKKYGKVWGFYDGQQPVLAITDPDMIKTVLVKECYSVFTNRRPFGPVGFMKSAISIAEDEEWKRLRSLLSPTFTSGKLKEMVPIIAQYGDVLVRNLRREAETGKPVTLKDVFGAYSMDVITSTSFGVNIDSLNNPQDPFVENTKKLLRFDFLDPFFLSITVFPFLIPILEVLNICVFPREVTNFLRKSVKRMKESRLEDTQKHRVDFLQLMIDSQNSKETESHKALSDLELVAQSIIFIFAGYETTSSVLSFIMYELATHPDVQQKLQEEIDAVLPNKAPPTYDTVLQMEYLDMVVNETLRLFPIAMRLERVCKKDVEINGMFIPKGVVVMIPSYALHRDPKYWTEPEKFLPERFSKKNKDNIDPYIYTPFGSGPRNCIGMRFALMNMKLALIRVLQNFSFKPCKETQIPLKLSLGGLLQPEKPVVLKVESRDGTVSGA
Another data set has as its target T2, human IP6K2 (Homo sapiens, UniProt Q9UHH9).
T2 construct: made in house; host or cells: Sf9 insect cells (baculovirus)
T2 sequence (Q9UHH9 1-426): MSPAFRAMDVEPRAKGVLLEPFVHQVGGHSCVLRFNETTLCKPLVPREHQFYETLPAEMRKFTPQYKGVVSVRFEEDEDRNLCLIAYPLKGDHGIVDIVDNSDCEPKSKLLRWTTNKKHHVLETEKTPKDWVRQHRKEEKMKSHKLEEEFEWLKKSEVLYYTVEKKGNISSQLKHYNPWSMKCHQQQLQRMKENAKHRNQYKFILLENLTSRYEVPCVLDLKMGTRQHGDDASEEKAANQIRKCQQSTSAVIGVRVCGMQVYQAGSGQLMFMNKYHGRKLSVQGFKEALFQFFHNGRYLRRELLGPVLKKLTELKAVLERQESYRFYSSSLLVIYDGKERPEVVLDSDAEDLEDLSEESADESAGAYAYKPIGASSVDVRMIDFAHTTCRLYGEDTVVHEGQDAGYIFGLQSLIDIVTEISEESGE
Briefly: IP6K2 inhibition assay (ADP Glo kinase assay). It is filed as biochemical. The settings on record: purified human IP6K2, 10 μM IP6, 10 μM ATP, 8-dose, triplicate, mean ± SEM. The procedure: Full-length human IP6K2 cDNA was subcloned into pFASTBAC1 plasmid (Gibco) with an N-terminal FLAG epitope sequence, and baculovirus was generated according to the manufacturer’s instructions. Sf9 insect cells were infected with baculovirus and incubated for 72 h. The cells were resuspended in lysis buffer [20 mM Tris–HCl (pH 7.9), 500 mM NaCl, 4 mM MgCl2, 0.4 mM EDTA, 2 mM DTT, 20% glycerol, 1 mM PMSF, and protease inhibitor cocktail (Roche)] and then disrupted with a Dounce homogeniser (pestle A, 3 series of 10 strokes with 10 min interval).
IP6K2 activity was measured using ADP Glo assay kit (Promega). All kinase assays were performed in low volume 384-well white plates (784075, Greiner-bioone) with a final volume of 5 μL. The reaction buffer contained 2 ng Flag-hIP6K2, 10 μM IP6, and 10 μM ATP in kinase buffer (50 mM Tris, 10 mM MgCl2, 2.5 mM DTT, 0.02% Triton-X-100, pH 6.8)[26]. For dose-dependent inhibition assay, 8 serial 2-fold dilutions of test compounds were prepared in DMSO. The final DMSO concentration was 5% in each reaction. The test compounds (5X, 25% DMSO in 1X kinase buffer) were dispensed to each well, and 2.5 X IP6K2 in kinase buffer were added. After 15 min incubation at room temperature, 2.5 X concentrations of IP6 and ATP were added to the plate. The reaction plate was incubated in a 37 °C incubator for 30 min. Next, the reactions were quenched with 5 μL of ADP Glo reagent for 40 min to deplete the remaining ATP. To convert the remaining ADP to ATP, 10 μl of detection reagent were added and incubated for 30–60 min. The luminescence of the final reactants was measured using the Mithras LB940 plate reader from Berthold. Samples were run in triplicate and the activity (%) was calculated using the following equations; Activity (%) = 100 × (μexperimental–μnegative)/(μpositive–μnegative). Negative control was DSMO-treated reaction. IC50 value was estimated using a logistic regression model with R package.
On the technique in general: In ADP-Glo the light output rises with the ADP produced.

Another data set concerns IP6K. Conditions: [ATP] = 1 mM; cited from earlier work.

Here are results for one molecule from article PMC8667942 (Journal of Enzyme Inhibition and Medicinal Chemistry, 2021).

T1 sequence (P10635 whole entry): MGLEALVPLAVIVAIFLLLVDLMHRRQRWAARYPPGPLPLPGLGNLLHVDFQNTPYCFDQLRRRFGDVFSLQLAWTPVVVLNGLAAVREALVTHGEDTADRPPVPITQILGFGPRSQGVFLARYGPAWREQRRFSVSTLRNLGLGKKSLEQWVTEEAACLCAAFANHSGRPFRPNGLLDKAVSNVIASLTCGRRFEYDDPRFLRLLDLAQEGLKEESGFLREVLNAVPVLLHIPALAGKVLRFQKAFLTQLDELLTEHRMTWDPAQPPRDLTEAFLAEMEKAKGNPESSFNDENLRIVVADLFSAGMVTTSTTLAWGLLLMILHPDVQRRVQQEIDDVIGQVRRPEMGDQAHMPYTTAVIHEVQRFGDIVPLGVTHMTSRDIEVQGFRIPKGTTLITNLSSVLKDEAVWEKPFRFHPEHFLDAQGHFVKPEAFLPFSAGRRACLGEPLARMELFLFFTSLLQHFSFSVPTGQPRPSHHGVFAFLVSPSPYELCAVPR
Protocol for purified CYP3A4: Purified CYP3A4 enzymes were diluted to 1 µM in 100 mM potassium phosphate buffer (pH 7.4) and then divided into two glass cuvettes. […] The binding titration was analysed using GraphPad Prism software (GraphPad, Inc., La Jolla, CA, USA).

As a reminder, the IC50 is the point on the concentration scale where inhibition reaches its midpoint. In the case of `O=[N+]([O-])c1ccc(CNc2nc(NCc3cccc(C(F)(F)F)c3)nc3[nH]cnc23)cc1` [TNP, N^6-[(4-nitrophenyl)methyl]-N^2-[[3-(trifluoromethyl)phenyl]methyl]-9H-purine-2,6-diamine], on CYP2D6, the “inhibitory effect on CYP2D6” value is reported as “no inhibitory effect”. On purified CYP3A4, the CYP3A4 binding mode entry is listed as “Type I”. Moreover, the IC50 on human IP6K2 was 4500 ± 400 nM; in the data set with IP6K, 470 nM.
